Test results published in ChEMBL document CHEMBL4196246, “Preussins with Inhibition of IL-6 Expression from Aspergillus flocculosus 16D-1, a Fungus Isolated from the Marine Sponge Phakellia fusca” (J Nat Prod, 2018).

Key:
THP-1 [1] = assay: Immunosuppressive activity in PMA-differentiated human THP1 cells assessed as inhibition of LPS-stimulated IL-6 production by flow cytometry; assay type: functional, cell-based
Candida albicans = assay: Antifungal activity against Monilia albicans ATCC 10231 measured after 24 hrs by broth macrodilution method; assay type: functional; conditions: ATCC 10231, 24 h
[2] = system: Trichophyton mentagrophytes; assay: Antifungal activity against Trichophyton mentagrophytes ATCC 4439 by broth macrodilution method; assay type: functional
Trichophyton rubrum = assay: Antifungal activity against Trichophyton rubrum ATCC 4438 measured after 4 to 7 days by broth macrodilution method; assay type: functional
THP-1 [3] = assay: Cytotoxicity against human THP1 cells after 72 hrs by CCK8 assay; assay type: functional, cell-based; conditions: THP-1, 72 h
A549 = assay: Cytotoxicity against human A549 cells after 72 hrs by CCK8 assay; assay type: functional, cell-based; conditions: A549, 72 h
HepG2 = assay: Cytotoxicity against human HepG2 cells after 72 hrs by CCK8 assay; assay type: functional, cell-based; conditions: HepG2, 72 h

Structure (SMILES) | IC50 (THP-1 [1]) | MIC (Candida albicans) | MIC [2] | MIC (Trichophyton rubrum) | IC50 (THP-1 [3]) | IC50 (A549) | IC50 (HepG2)
CN1[C@H](CCCCCC(=O)O)C[C@H](O)[C@@H]1Cc1ccccc1 | 8.2 µM | > 50 µg/mL | > 50 µg/mL | > 50 µg/mL | > 20 µM | > 20 µM | > 20 µM
CN1[C@H](CCCCC(=O)O)C[C@H](O)[C@@H]1Cc1ccccc1 | 22 µM | > 50 µg/mL | > 50 µg/mL | > 50 µg/mL | > 20 µM | > 20 µM | > 20 µM
CN1[C@H](CCCCCCCCC(=O)O)C[C@H](O)[C@@H]1Cc1ccccc1 | 0.11 µM | > 50 µg/mL | > 50 µg/mL | > 50 µg/mL | > 20 µM | > 20 µM | > 20 µM
CC(O)CCCCC[C@@H]1C[C@H](O)[C@H](Cc2ccccc2)N1C (mixture of isomers) | 2.3 µM | > 50 µg/mL | > 50 µg/mL | > 50 µg/mL | > 20 µM | > 20 µM | > 20 µM

The remaining compounds from weak to strong by IC50 (THP-1 [1]), led by results:

IC50 (THP-1 [1]) | MIC (Candida albicans) | MIC [2] | MIC (Trichophyton rubrum) | Structure (SMILES) | IC50 (THP-1 [3]) | IC50 (A549) | IC50 (HepG2)
21 µM | > 50 µg/mL | > 50 µg/mL | > 50 µg/mL | CN1[C@H](CCC(=O)O)C[C@H](O)[C@@H]1Cc1ccccc1 | > 20 µM | > 20 µM | > 20 µM
16 µM | > 50 µg/mL | > 50 µg/mL | > 50 µg/mL | CCCC(O)CCCCC[C@@H]1C[C@H](O)[C@H](Cc2ccccc2)N1C (mixture of isomers) | > 20 µM | > 20 µM | > 20 µM
14 µM | > 50 µg/mL | > 50 µg/mL | > 50 µg/mL | C[C@@H](O)CCCCCCC[C@@H]1C[C@H](O)[C@H](Cc2ccccc2)N1C | > 20 µM | > 20 µM | > 20 µM
9.9 µM | > 50 µg/mL | > 50 µg/mL | > 50 µg/mL | CN1[C@H](CCCCCCC(=O)O)C[C@H](O)[C@@H]1Cc1ccccc1 | > 20 µM | > 20 µM | > 20 µM
0.67 µM |  |  |  | CC(C)=CCC/C(C)=C/Cc1cc(-c2coc3cc(O)ccc3c2=O)ccc1O |  |  | 
0.19 µM | > 50 µg/mL | > 50 µg/mL | > 50 µg/mL | CC[C@@H](O)CCCCCC[C@@H]1C[C@H](O)[C@H](Cc2ccccc2)N1C | > 20 µM | > 20 µM | > 20 µM
